# Results: article PMC6829886, “Inhibition of Non-Small Cell Lung Cancer Cells by Oxy210, an Oxysterol-Derivative that Antagonizes TGFβ and Hedgehog Signaling” (Cells, 2019)
# How the values were obtained:
# Human TGFBR2 = target: T1, Human TGFBR2 (Homo sapiens, UniProt P37173); assay: TGFβ receptor II kinase inhibition assay (Eurofins); format: biochemical; conditions: vs. positive controls Cdk1/2 Inhibitor III and PKR Inhibitor
# T1 construct: Human TGFBR2 (amino acid 188-end); purchased Eurofins
# T1 sequence (P37173 188-567 limits assumed): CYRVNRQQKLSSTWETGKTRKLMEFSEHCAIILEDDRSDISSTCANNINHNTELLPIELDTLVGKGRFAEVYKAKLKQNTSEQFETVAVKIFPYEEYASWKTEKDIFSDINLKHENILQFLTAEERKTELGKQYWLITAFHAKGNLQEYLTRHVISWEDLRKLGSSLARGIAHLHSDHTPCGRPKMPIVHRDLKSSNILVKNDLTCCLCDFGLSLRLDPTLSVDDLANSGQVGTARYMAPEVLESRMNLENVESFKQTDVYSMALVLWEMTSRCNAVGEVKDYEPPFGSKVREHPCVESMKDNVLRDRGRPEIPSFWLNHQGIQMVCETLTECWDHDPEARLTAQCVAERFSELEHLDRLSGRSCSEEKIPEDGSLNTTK
# Experimental: Effect of Oxy210 on inhibition of TGFβ receptors I and II kinase activity was assessed by Eurofins (Celle-L’Evescault, France). TGFBR1 (h): Human TGFBR1 (amino acid 200 to end) was incubated with 8 mM MOPS pH 7.0, 0.2 mM EDTA, 1 mM MnCl2, 2 mg/mL casein, 10 mM Magnesium acetate and […] (specific activity and concentration as required). The reaction was initiated by the addition of the Mg/ATP mix. After incubation for 40 min at room temperature, the reaction was stopped by the addition of phosphoric acid to a concentration of 0.5%. 10 μL of the reaction was then spotted onto a P30 filtermat and washed four times for 4 min in 0.425% phosphoric acid and once in methanol prior to drying and scintillation counting. TGFBR2 (h): Human TGFBR2 (amino acid 188-end) was incubated with 20 mM Tris/HCl pH 8.5, 0.2 mM EDTA, 0.33 mg/mL MBP, 10 mM Magnesium acetate and [9-33P-ATP] (specific activity and concentration as required). The reaction was initiated by the addition of the Mg/ATP mix. After incubation for 120 min at room temperature, the reaction was stopped by the addition of phosphoric acid to a concentration of 0.5%. […]
# Figure 11 Inhibition of TGFβ-induced Smad2/3 phosphorylation and transcriptional activity. […] Luciferase activity was measured and normalized to the Renilla luciferase activity. […]
# [1] = Metabolic stability in human liver microsomes; format: in vitro ADME
# [2] = system: EGF or Il-1β target gene expression (fibronectin, IL-6) in NIH3T3-E1 or A549 cells; assay: Target gene expression after stimulation with EGF or Il-1β (pathway specificity); format: cell-based
# From the text: We content that the biological properties of Oxy210 described here are specific inhibitory effects, by and large limited to Hh and TGF β signaling, rather than the result of nonspecific binding events and/or a pan inhibition of cellular signaling.
# A549 cells = assay: Matrigel invasion assay; format: cell-based, human; conditions: Matrigel chambers, 24 h
# Experimental: Invasion assays were performed using 24-well Matrigel invasion chambers (Corning, Corning, NY, USA), with the protocol provided by the manufacturer. A549 cells in 6-well plate starved in RPMI 1640 containing 0.1% FBS for 24 h were pre-treated with Oxy210 or DMSO for 2 h. 2 × 10^4 cells were seeded in each of the upper chambers containing RPMI 1640 supplemented with 0.1% FBS and the test agents. Each of the lower chambers contained RPMI 1640 supplemented with 5% FBS and the corresponding test agents. The cells were cultured for 24 h before assessment of cell invasion. Non-invaded cells in the upper surface of the membrane were removed using a cotton swab and the invaded cells in the lower surface were fixed and stained with 100% methanol and 0.4% trypan blue, respectively. The invaded cells were imaged and counted under the microscope at 40X total magnification.
# Figure 9 Inhibition of TGFβ-induced invasive activity of A549 cells. In vitro invasion assays were performed using chambers with matrigel-coated membrane as described in the Materials and Methods section. (a) Images of invaded cells on the membranes. (b) Quantitative analysis of invasion of A549 cells induced by TGFβ in the absence or presence of Oxy210. Data from a representative experiment are reported as the mean of triplicate determinations ± SD (** p < 0.01 vs. TGFβ treated cells; ## p < 0.01 vs. control).
# Liver X Receptor (LXR) = format: cell-based; conditions: mouse
# pKa = format: physicochemical; conditions: printed in Figure 1, method not stated
# From the text: Figure 1 The molecular structures of Cholesterol, Oxy8, Oxy133, Oxy16, Oxy186 and Oxy210. TEXT PRINTED IN THE PICTURE: Oxy210: pKa ~ 5
smiles,measurement,setting,value
"C[C@]12CC[C@H]3[C@@H](CC=C4C[C@@H](O)CC[C@@]43C)[C@@H]1CC[C@@H]2[C@](C)(O)CCc1cccnc1 [Oxy210, (3S,8S,9S,10R,13S,14S,17S)-17-((R)-2-hydroxy-4-(pyridin-3-yl)butan-2-yl)-10,13-dimethyl-2,3,4,7,8,9,10,11,12,13,14,15,16,17-tetradecahydro-1H-cyclopenta[a]phenanthren-3-ol]",inhibitory activity on TβRII in functional kinase assay,Human TGFBR2,did not display significant inhibitory activity
same,half-life,"[1]; human, liver microsomes, read-out: HLM, Half-Life",1.15 h
same,remaining at 1 h,"[1]; read-out: HLM, % Remaining after 60 min",55%
same,"inhibition of EGF or Il-1β target gene expression (fibronectin, IL-6)",[2],did not result in significant inhibition
same,TGFβ-induced invasive activity,A549 cells,inhibited this invasive activity in a dose dependent manner
same,ABCA1 expression,Liver X Receptor (LXR),absence of ABCA1 expression
same,pKa,pKa,~5
